Results: patent US20030153590A1, “Method of treating alcoholism or alcohol abuse” (OY CONTRAL PHARMA LTD, priority 2001, published 2003)
Where a name gives a salt, the structure may show the parent alone. Read-outs that look alike come from different tables or passages of the source.

Experiments:
[1] = Solubility of nalmefene HCl in water as a function of pH; format: physicochemical; conditions: aqueous buffer, read-out: Matematically determined solubility in water
Description: Cs is the water solubility of nalmefene.
Because the water solubility of nalmefene was not available in the literature for all the pH values used in the permeation study, the solubilities at pH values 6.5, 7.0, 7.5, and 8.0 were determined matematically from a diagram that described the logarithm of the solubility listed on Table 5 as a function of pH (Cs,pH).

[2] = cited from earlier work

Structure (SMILES): C=C1CC[C@@]2(O)[C@H]3Cc4ccc(O)c5c4[C@@]2(CCN3CC2CC2)[C@H]1O5 [Nalmefene HCl]
- solubility ([1]; pH 6.5, from diagram of log solubility of Table 5 vs pH): 112 mg/mL
- solubility ([1]; pH 7.0, from diagram of log solubility of Table 5 vs pH): 88.6 mg/mL
- solubility ([1]; pH 7.5, from diagram of log solubility of Table 5 vs pH): 31.9 mg/mL
- solubility ([1]; pH 8.0, from diagram of log solubility of Table 5 vs pH): 0.44 mg/mL
- Solubility in water ([2]; pH 2.25): 128 mg/mL
- Solubility in water ([2]; pH 5.71): 131 mg/mL
- Solubility in water ([2]; pH 6.115): 133 mg/mL
- Solubility in water ([2]; pH 6.25): 124 mg/mL
- Solubility in water ([2]; pH 7.85): 1.09 mg/mL
- Solubility in water ([2]; pH 8.5): 0.180 mg/mL
- Solubility in water ([2]; pH 9.15): 0.090 mg/mL
- Solubility in water ([2]; pH 10.4): 0.230 mg/mL
